Reference: patent US7297501B2, “Method and devices for running reactions on a target plate for MALDI mass spectrometry” (University of Pennsylvania, priority 2001, dated 2007)
One block for each compound: values may come before it. *: point of attachment. AMC = Cc1cc(=O)oc2cc(N*)ccc12; Cbz = O=C(OCc1ccccc1)*

Columns and labels:
thrombin [1] = target: T1, thrombin (Homo sapiens, UniProt P00734); assay: Label-free nanoliter HTS reaction on MALDI target: thrombin release of fibrinopeptides A and B from fibrinogen, MALDI MS detection; assay type: biochemical; details: benzamidine in the nanoliter reaction, FIG. 26B
plasmin [2] = details: Morita, 1977; cited from earlier work
plasmin [3] = target: plasmin (Homo sapiens, UniProt P00747); assay: Microarray assay: deposition of pure plasmin onto fluorogenic substrate array; assay type: biochemical; details: pure plasmin (1 μM) deposited on the array
thrombin [4] = target: T1, thrombin; assay: Microarray assay: aerosol deposition of thrombin onto fluorogenic substrates in DMSO/glycerol; assay type: biochemical; details: after spray application of thrombin
Procedure: Well characterized for over 30 years, serine proteases of the coagulation pathway in plasma were selected as a system in which to monitor the delivery of complex enzyme fluids to the microassay. Fluorogenic substrates in DMSO/glycerol were assayed to a glass slide.
After spray application, thrombin caused a 65-fold increase in fluorescence activity after conversion of the boc-VPR-MCA substrate. […] Aerosol deposition of pure tPA (10 μM) to a sensing array caused significant cleavage of the tPA, thrombin and Xa substrates, resulting in fluorescence that was 18- to 20-fold above background.

plasmin (Homo sapiens, UniProt P00747), sequence (P00747 581-810 limits assumed, species assumed): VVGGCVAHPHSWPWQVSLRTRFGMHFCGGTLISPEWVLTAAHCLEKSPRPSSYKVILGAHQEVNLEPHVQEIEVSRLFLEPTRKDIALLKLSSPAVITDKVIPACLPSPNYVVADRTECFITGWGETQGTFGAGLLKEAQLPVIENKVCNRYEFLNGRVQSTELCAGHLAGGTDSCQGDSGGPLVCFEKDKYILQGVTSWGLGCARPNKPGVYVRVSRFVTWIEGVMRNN
plasmin (Homo sapiens, UniProt P00747), sequence (P00747 97-580 partner limits assumed, species assumed): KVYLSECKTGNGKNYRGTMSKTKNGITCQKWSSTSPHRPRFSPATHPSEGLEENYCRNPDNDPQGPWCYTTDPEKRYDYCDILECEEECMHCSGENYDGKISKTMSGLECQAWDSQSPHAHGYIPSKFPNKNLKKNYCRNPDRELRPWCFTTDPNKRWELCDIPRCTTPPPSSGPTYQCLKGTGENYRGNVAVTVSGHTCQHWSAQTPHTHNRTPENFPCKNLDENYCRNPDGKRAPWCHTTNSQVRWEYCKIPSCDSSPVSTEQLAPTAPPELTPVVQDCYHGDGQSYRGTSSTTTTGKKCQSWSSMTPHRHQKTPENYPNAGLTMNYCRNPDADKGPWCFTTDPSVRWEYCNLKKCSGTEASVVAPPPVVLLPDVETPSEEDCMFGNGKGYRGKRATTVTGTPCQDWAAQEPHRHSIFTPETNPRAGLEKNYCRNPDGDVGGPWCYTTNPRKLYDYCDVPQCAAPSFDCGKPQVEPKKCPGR

inhibition of thrombin-mediated release of fibrinopeptides A and B (FPA/FPB) (thrombin [1]): completely inhibited the reaction
Compound: N=C(N)c1ccccc1 [Benzamidine]

Compound: Cbz-Phe-Arg-{AMC}
reported plasmin activity on substrate (plasmin [2]): activity

signal above background (plasmin [3]): 25 fold
Compound: boc-VLK-MCA

increase in fluorescence activity after conversion of the substrate (thrombin [4]): 65 fold
Compound: boc-VPR-MCA
reported plasmin activity on substrate (plasmin [2]): activity
